Data as given in publication PMC3909101, “Chemical Rescue and Inhibition Studies to Determine the Role of Arg301 in Phosphite Dehydrogenase” (PLoS ONE, 2014).
Several values for one entry are separate records, joined by “and”; a condition that tells them apart may be missing. Equal entries are not always repeated. Entries after “also recorded” stand apart in the source; their conditions may differ. Where two headings read alike, the source gives them in different places.

Experiments:
[1] = molecular target: T1, 17X-PTDH-R301A (Stutzerimonas stutzeri (Pseudomonas stutzeri), UniProt O69054, D13E/E130K/I150F/M26I/Q132R/Q137R/R301A/V71I, form not given); assay type: biochemical, Pseudomonas stutzeri WM88; details: for Rescue of activity of the R301A mutant: exogenous reagent, unsuccessful ones tested at 20–100 mM depending on solubility; for k rescue/ K m, phosphite: R301A with saturating rescue reagent; for EC50: pH 7.25, 25°C, read-out: K R (concentration of rescue reagent at which half-maximal rate was observed); for K m, phosphite (apparent): rescue agent and NAD+ saturating (>10 K R)
[2] = parameters: method as in earlier work; details: cited from earlier work
[3] = molecular target: H292A mutant of wt-PTDH (Stutzerimonas stutzeri, UniProt O69054, H292A); assay type: biochemical, Pseudomonas stutzeri WM88; details: 10–100 mM reagent
[4] = molecular target: H292G mutant of wt-PTDH (Stutzerimonas stutzeri, UniProt O69054, H292G); assay type: biochemical, Pseudomonas stutzeri WM88; details: 10–100 mM reagent
[5] = molecular target: T1, 17X-PTDH-R301A; assay type: biochemical, Pseudomonas stutzeri WM88
[6] = molecular target: T1, 17X-PTDH-R301A; assay type: biochemical, Pseudomonas stutzeri WM88; details: saturating rescue reagent (>20 K R), deuterated vs protiated phosphite, pH 7.25, 25°C
[7] = Expected proportion of aminoguanidine in unprotonated and protonated states at various pH values; assay type: physicochemical
[8] = molecular target: 17X-PTDH; experiment: Phosphite dissociation constant for 17X-PTDH by the method of Klinman and Matthews; assay type: biochemical, Pseudomonas stutzeri WM88; details: calculated from ^D(V/K), ^DV and K m,Phosphite
[9] = system: R301A; experiment: Phosphite Kd and Km for R301A; assay type: biochemical, Pseudomonas stutzeri WM88
[10] = molecular target: T1, 17X-PTDH-R301A; assay type: biochemical, Pseudomonas stutzeri WM88; details: pH 7.25, read-out: K is
[11] = molecular target: 17X-PTDH; experiment: Sulfite inhibition of 17X-PTDH; assay type: biochemical, Pseudomonas stutzeri WM88; details: competitive vs phosphite, 4 mM NAD+, pH 7.25, read-out: K is
Description: Reactions were performed in 100 mM MOPS (pH 7.25) at saturating concentrations of 4 mM NAD^+. Sodium sulfite was adjusted to the desired concentration by serial dilution from a 0.5 M stock solution. Sulfite concentration was adjusted to 0, 50, 100, 150, 200 or 300 µM for R301A or 0, 0.5, 1, 5, 10 or 20 µM for 17X-PTDH. An experiment was also performed with 17X-PTDH-R301A and saturating concentrations of 300 mM aminoguanidine, with sulfite concentrations of 0, 100, 200, 300, 400 or 500 µM. The reaction was initiated by addition of PTDH (0.1 µM final concentration, 5 µM for R301A). At each concentration of inhibitor, phosphite concentration was varied. The data was analyzed in GraFit 7.0 [28] using the equation for competitive inhibition (Equation 3) to fit all of the data, where I is the inhibitor concentration and K is the dissociation constant for a competitive inhibitor [29]. [drawing 5] (3)

[12] = wt enzyme, pH 7.25; ref (1) Relyea et al., 2005; cited from earlier work
[13] = wt enzyme, pH 7.25, cited from earlier work
[14] = R301A, k cat,apparent at saturating rescue reagent, 100 mM MOPS pH 7.25, 25°C, 4 mM NAD+
[15] = 0–2.0 mM aminoguanidine, 1 M phosphite, 4 mM NAD+, first experiment
[16] = repeat with a different batch of enzyme and reagents

T1 sequence (O69054 1-329 D13E/E130K/I150F/M26I/Q132R/Q137R/R301A/V71I): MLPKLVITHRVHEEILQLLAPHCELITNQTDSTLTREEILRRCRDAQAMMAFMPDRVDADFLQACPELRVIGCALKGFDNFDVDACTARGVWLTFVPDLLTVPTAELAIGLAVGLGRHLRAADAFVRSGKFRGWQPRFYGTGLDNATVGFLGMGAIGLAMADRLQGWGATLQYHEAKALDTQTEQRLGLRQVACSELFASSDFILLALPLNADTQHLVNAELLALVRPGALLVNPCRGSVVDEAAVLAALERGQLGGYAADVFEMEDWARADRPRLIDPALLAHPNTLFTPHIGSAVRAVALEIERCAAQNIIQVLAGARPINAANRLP

Molecule: CCNC(=N)N [ethylguanidine]
- k rescue [1, 14]: 0.52 (0.13) s^−1
- [drawing 6] (Brønsted plot ordinate; uses K R corrected for free base concentration at pH 7.25) ([1]; R301A, pH 7.25): 6.1 (0.2)
- Rescue of activity of the R301A mutant [1]: markedly improved
- pK a (conjugate acid of rescue reagent) [2]: 13.3

Molecule: N=C(N)NC(N)=O [N-guanylurea]
- [drawing 6] (Brønsted plot ordinate; uses K R corrected for free base concentration at pH 7.25) ([1]; pH 7.25): −2.9 (0.2)
- k rescue ([1]; pH 7.25): 0.42 (0.07) s^−1
- pK a (conjugate acid of rescue reagent) [2]: 3.9

Molecule: NC(=O)NO [hydroxyurea]
- Rescue of activity of the R301A mutant [1]: not observed

Molecule: c1nc[nH]n1 [1,2,4-triazole]
- Rescue of activity of H292A mutant [3]: no activity; also recorded: failed to result in any activity
- Rescue of activity of H292G mutant [4]: no activity; also recorded: failed to result in any activity

Molecule: N=C(N)NN [aminoguanidine]
- Ratio of slopes of k cat,apparent vs rescue agent concentration, pH 7.5 : pH 7.0 [5, 15]: 1.2±0.1
- Ratio of slopes of k cat,apparent vs rescue agent concentration, pH 8.0 : pH 7.0 [5, 15]: 3.7±0.3
- Ratio of slopes, pH 7.5 : pH 7.0 [5, 16]: 1.6±0.1
- Ratio of slopes, pH 8.0 : pH 7.0 [5, 16]: 3.0±0.1
- ^D k cat [6]: 2.1 (0.1)
- ^D k cat/K m [6]: 3.1 (0.3)
- k rescue/ K m, phosphite ([1]; pH 7.25): 180 (10) M^−1 s^−1
- k rescue [1, 14]: 1.4 (0.1) s^−1
- [drawing 6] (Brønsted plot ordinate; uses K R corrected for free base concentration at pH 7.25) ([1]; R301A, pH 7.25): 5.3 (0.1)
- EC50 ([1]; R301A): 32 mM
- K m, phosphite (apparent) ([1]; R301A, pH 7.25): 7.4 (0.5) mM
- Activity with saturating rescue agent relative to wild-type activity ([1]; R301A, saturating substrate and rescue agent): about 40%
- Rescue of activity of the R301A mutant [1]: markedly improved
- Ratio of concentrations of reagent (pH 7.5 : pH 7), protonated [7]: 1.0
- Ratio of concentrations of reagent (pH 7.5 : pH 7), unprotonated [7]: 3.2
- Ratio of concentrations of reagent (pH 8 : pH 7), protonated [7]: 1.0
- Ratio of concentrations of reagent (pH 8 : pH 7), unprotonated [7]: 10.0
- Protonated (RNH3^+) proportion ([7]; pH 7.0): 99.99%
- Unprotonated (RNH2) proportion ([7]; pH 7.0): 0.01%
- Protonated (RNH3^+) proportion ([7]; pH 7.5): 99.97%
- Unprotonated (RNH2) proportion ([7]; pH 7.5): 0.03%
- Protonated (RNH3^+) proportion ([7]; pH 8.0): 99.90%
- Unprotonated (RNH2) proportion ([7]; pH 8.0): 0.10%
- pK a (conjugate acid of rescue reagent) [2]: 11.0

Molecule: CN [methylamine]
- Rescue of activity of H292A mutant [3]: no activity
- Rescue of activity of H292G mutant [4]: no activity
- Rescue of activity of the R301A mutant [1]: not observed

Molecule: CC(=N)N [acetamidine]
- ^D k cat [6]: 1.5 (0.1)
- ^D k cat/K m [6]: 1.8 (0.6)
- k rescue/ K m, phosphite ([1]; pH 7.25): 6.7 (1.1) M^−1 s^−1
- k rescue [1, 14]: 0.86 (0.08) s^−1
- [drawing 6] (Brønsted plot ordinate; uses K R corrected for free base concentration at pH 7.25) ([1]; R301A, pH 7.25): 6.3 (0.1)
- EC50 ([1]; R301A): 63 mM
- K m, phosphite (apparent) ([1]; R301A, pH 7.25): 130 (20) mM
- Rescue of activity of the R301A mutant [1]: markedly improved
- pK a (conjugate acid of rescue reagent) [2]: 12.5

Molecule: NC(N)=S [thiourea]
- Rescue of activity of the R301A mutant [1]: not observed

Molecule: CCN [ethylamine]
- Rescue of activity of the R301A mutant [1]: not observed

Molecule: phosphite
- Kd [8]: 0.023 ± 0.006 mM
- K m of phosphite ([9]; R301A, pH 8.0, no rescue agent): 300 ± 35 mM
- Kd ([9]; calculated from ^D(V/K), ^DV and K m,Phosphite): 13 ± 2 mM

Molecule: NC(N)=O [urea]
- Rescue of activity of the R301A mutant [1]: not observed

Molecule: O=S(O)O [sulfite]
- Ki ([10]; R301A + saturating 300 mM aminoguanidine): 0.078 mM
- Ki ([10]; R301A, competitive vs phosphite, 4 mM NAD+): 0.13 mM
- Ki [11]: 0.00031 mM

Molecule: N=C(N)N [guanidine]
- ^D k cat [6]: 1.8 (0.1)
- ^D k cat/K m [6]: 2.3 (0.1)
- k rescue/ K m, phosphite ([1]; pH 7.25): 41 (4) M^−1 s^−1
- k rescue [1, 14]: 1.2 (0.1) s^−1
- [drawing 6] (Brønsted plot ordinate; uses K R corrected for free base concentration at pH 7.25) ([1]; R301A, pH 7.25): 8.1 (0.1)
- EC50 ([1]; R301A): 18 mM
- K m, phosphite (apparent) ([1]; R301A, pH 7.25): 30 (3) mM
- Rescue of activity of the R301A mutant [1]: markedly improved
- pK a (conjugate acid of rescue reagent) [2]: 13.6

Molecule: CN=C(N)N [methylguanidine]
- ^D k cat [6]: 1.4 (0.1)
- ^D k cat/K m [6]: 1.6 (0.5)
- k rescue/ K m, phosphite ([1]; pH 7.25): 5.2 (1.1) M^−1 s^−1
- k rescue [1, 14]: 0.68 (0.04) s^−1
- [drawing 6] (Brønsted plot ordinate; uses K R corrected for free base concentration at pH 7.25) ([1]; R301A, pH 7.25): 7.2 (0.1)
- EC50 ([1]; R301A): 55 mM
- K m, phosphite (apparent) ([1]; R301A, pH 7.25): 130 (30) mM
- Rescue of activity of the R301A mutant [1]: markedly improved
- pK a (conjugate acid of rescue reagent) [2]: 13.4

Molecule: CCCCN [butylamine, n-butylamine]
- Rescue of activity of the R301A mutant [1]: not observed

Molecule: c1c[nH]cn1 [imidazole]
- Rescue of activity of H292A mutant [3]: no activity; also recorded: failed to result in any activity
- Rescue of activity of H292G mutant [4]: no activity; also recorded: failed to result in any activity

B1: wt enzyme: wild-type phosphite dehydrogenase from Pseudomonas stutzeri WM88 (protein, UniProt O69054 1-336, looked up)
Phosphonate dehydrogenase: MLPKLVITHRVHDEILQLLAPHCELMTNQTDSTLTREEILRRCRDAQAMMAFMPDRVDADFLQACPELRVVGCALKGFDNFDVDACTARGVWLTFVPDLLTVPTAELAIGLAVGLGRHLRAADAFVRSGEFQGWQPQFYGTGLDNATVGILGMGAIGLAMADRLQGWGATLQYHEAKALDTQTEQRLGLRQVACSELFASSDFILLALPLNADTQHLVNAELLALVRPGALLVNPCRGSVVDEAAVLAALERGQLGGYAADVFEMEDWARADRPRLIDPALLAHPNTLFTPHIGSAVRAVRLEIERCAAQNIIQVLAGARPINAANRLPKAEPAAC
- substrate KIE on kcat [12]: 2.1
- solvent isotope effect (SIE) on k cat [13]: 1.55 and 1.55±0.07
- observed combined SIE and substrate KIE on kcat ([13]; ref (1) Relyea et al., 2005): 2.48
